The source of these data is patent publication US10668052B2, “Combinations of isomers of dihydrotetrabenazine” (ADEPTIO PHARMACEUTICALS LIMITED, priority 2017, dated 2020).

Series [1] can be described thus: Pharmacokinetic study of tetrabenazine and dihydrotetrabenazine metabolites in plasma after oral tetrabenazine 25 mg tablets. Format: in vivo, human. The note with it: for Tmax / AUC(0-t) / AUC(0-inf) / Cmax / half-life / AUC: human, plasma; for Tmax: N=08, healthy adult male volunteers; for AUC(0-t): po; for Kel: unit inferred; for metabolite of tetrabenazine in humans (major/minor): after administration of tetrabenazine; for AUC: read-out: area under the curve (AUC). As to the method:
A pharmacokinetic study was carried out in healthy adult male volunteers under fasting conditions at a dose of single and multiple oral administration of 25 mg tablets once a day to ascertain the plasma levels of +/−α and +/−β dihydrotetrabenazine.
Table 1 summarises the pharmacokinetic data obtained following single-dose oral administration of tetrabenazine at a dose level of 25 mg (fasting, N=08).
Table 2 summarises the pharmacokinetic data obtained following multiple-dose oral administration of tetrabenazine at a dose level of 25 mg (fasting, N=07).

Series [2] deals with amphetamine induced locomotor activity in male CD rats. The settings on record: for total distance travelled: normalised.
Protocol: Male CD (Charles River Laboratories, Germany) at weight range of 200-250 g (165-200 g upon arrival) were used for the experiments. Animals were housed at a standard temperature (22±1° C.) and in a light-controlled environment (lights on from 7 am to 8 pm) with ad libitum access to food and water.
The locomotor activity of the rats was tested in an open field arena. The open field test was performed during the rat light cycle and under a normal lighting evenly distributed to the test chambers. The paths of the rats were recorded by activity monitor (Med. Associates Inc.).
The rats were placed in the centre of the arena, and the path was recorded for 30 minutes. After 30 minutes of testing, vehicle or amphetamine was dosed and the rat was placed in the centre of the arena, and the path was recorded for 60 minutes, the total testing time being 90 minutes.
Series [3] has as its target Chromaffin Granule Monoamine Transporter (Bos taurus, UniProt Q27963). The note with it: racemic isomers, in vitro; cited from earlier work.
[4] abbreviates: single-dose oral tetrabenazine 25 mg, fasting.
Setting [5] is: male, 25 mg, multiple-dose oral tetrabenazine 25 mg once a day, fasting, N=07.
Where [6] appears, read: male, 25 mg, single-dose oral tetrabenazine 25 mg, fasting, N=08.
[7] abbreviates: male, single-dose oral tetrabenazine 25 mg, fasting, N=08.
Where [8] appears, read: multiple-dose oral tetrabenazine 25 mg once a day, fasting, N=07.
The mark [9] stands for this setting: single-dose oral tetrabenazine 25 mg, fasting, N=08.
The mark [10] stands for this setting: oral, 25 mg, single dose study, tetrabenazine to adult male humans.
[11] abbreviates: Study 4, 1 mg/kg, compared to vehicle-amphetamine group.
Where [12] appears, read: Study 6, each isomer 1 mg/kg, risperidone 1 mg/kg, compared to vehicle-amphetamine group, unnormalised.

Entries after “also recorded” stand apart in the source; their conditions may differ. Read-outs that look alike come from different tables or passages of the source.

By Tmax is commonly meant the time from dosing to the highest level. Broadly, the AUC(0-t) is exposure summed from dosing to a finite time, without extrapolation to infinity. For orientation: AUC(0-inf) means total exposure, with the tail of the curve extrapolated. As usually defined, the Cmax is the highest concentration seen after dosing. What is called half-life is the time needed for the level to fall by half in the phase considered. As a reminder, the AUC is the area under the concentration-time curve, a measure of exposure.

Chromaffin Granule Monoamine Transporter, sequence (Q27963 whole entry): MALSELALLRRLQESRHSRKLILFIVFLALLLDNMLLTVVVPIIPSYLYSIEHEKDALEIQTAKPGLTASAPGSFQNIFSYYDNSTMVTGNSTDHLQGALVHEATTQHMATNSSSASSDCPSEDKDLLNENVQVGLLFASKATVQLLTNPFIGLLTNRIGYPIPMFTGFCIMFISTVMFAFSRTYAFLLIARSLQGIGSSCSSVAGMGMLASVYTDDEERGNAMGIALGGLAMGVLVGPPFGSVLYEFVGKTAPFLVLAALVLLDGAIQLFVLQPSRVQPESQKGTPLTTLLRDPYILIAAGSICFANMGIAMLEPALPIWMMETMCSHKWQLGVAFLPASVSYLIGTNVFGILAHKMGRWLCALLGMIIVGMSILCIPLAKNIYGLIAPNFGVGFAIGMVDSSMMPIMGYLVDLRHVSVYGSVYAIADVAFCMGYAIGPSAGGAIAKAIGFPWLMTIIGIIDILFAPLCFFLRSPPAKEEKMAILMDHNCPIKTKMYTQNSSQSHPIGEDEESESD

For `COc1cc2c(cc1OC)C1CC(=O)C(CC(C)C)CN1CC2` (racemic) [Tetrabenazine, 1,3,4,6,7,11b-hexahydro-9,10-dimethoxy-3-(2-methylpropyl)-2H-benzo(a)quinolizin-2-one], the Tmax in series [1] (setting [4]) worked out at 0.87 h. Besides, the AUC(0-t) in series [1] (setting [5]) came out at 2.79 ng·h/mL. The AUC(0-t) in series [1] (setting [6]) was found to be 1.87 ng·h/mL. Further, in series [1] (setting [7]), the AUC(0-inf) is 2.42 ng·h/mL, the Cmax came to 0.58 ng/mL and the half-life is 261 min. In series [1] (setting [8]), the Cmaxss is recorded as 0.73 ng/mL, the Cminss is reported as 0.01 ng/mL and the “Tmaxss Mean” value is given as 96.89 h. For the same compound, in series [1] (setting [9]), the “Extrapolated AUC” value was 27.54% and the Kel amounted to 0.19 h⁻¹.
Take `COc1cc2c(cc1OC)[C@H]1C[C@@H](O)[C@H](CC(C)C)CN1CC2` [(+)-α-DHTBZ, (2R,3R,11bR)-3-isobutyl-9,10-dimethoxy-1,3,4,6,7,11b-hexahydro-2H-pyrido[2,1,a]isoquinolin-2-ol]: the “metabolite of tetrabenazine in humans (major/minor)” value (“metabolite … (major/minor)” for short) in series [1] is on record as “minor metabolites”. In addition, in series [1] (setting [10]), the Cmax was 2.61 ng/mL and the AUC came to 7.98 ng·h/mL. The Tmax in series [1] (setting [4]) amounted to 1.16 h. Moreover, the AUC(0-t) in series [1] (setting [5]) is 13.7 ng·h/mL. Also, the AUC(0-t) in series [1] (setting [6]) was determined as 7.98 ng·h/mL. Further, in series [1] (setting [7]), the AUC(0-inf) is 10.8 ng·h/mL, the Cmax was 2.61 ng/mL and the half-life is 287 min. In series [1] (setting [8]), the Cmaxss came to 3.31 ng/mL, the Cminss turned out to be 0.00 ng/mL, the Ctss stood at 0.44 ng/mL and the “Tmaxss Mean” value is on record as 97.18 h. Also, in series [1] (setting [9]), the “Extrapolated AUC” value is 32.10% and the Kel worked out at 0.17 h⁻¹.
`COc1cc2c(cc1OC)[C@H]1C[C@H](O)[C@H](CC(C)C)CN1CC2` [(+)-β-DHTBZ, (2S,3R,11bR)-3-isobutyl-9,10-dimethoxy-1,3,4,6,7,11b-hexahydro-2H-pyrido[2,1,a]isoquinolin-2-ol]: the “metabolite … (major/minor)” value in series [1] (listed as (+)-β-dihydrotetrabenazine) is recorded as “major metabolites; also recorded: main metabolites”. Also, in series [1] (setting [10]), the Cmax was determined as 103 ng/mL and the AUC is 376 ng·h/mL. Moreover, the Tmax in series [1] (setting [4]) was found to be 1.12 h. For the same compound, the AUC(0-t) in series [1] (setting [5]) stood at 599 ng·h/mL. Moreover, the AUC(0-t) in series [1] (setting [6]) is 376 ng·h/mL. In addition, in series [1] (setting [7]), the AUC(0-inf) is 410 ng·h/mL, the Cmax amounted to 103 ng/mL and the half-life was 348 min. In series [1] (setting [8]), the Cmaxss was 144.76 ng/mL, the Cminss is 5.45 ng/mL, the Ctss is reported as 5.54 ng/mL and the “Tmaxss Mean” value came to 97.11 h. Moreover, in series [1] (setting [9]), the “Extrapolated AUC” value is recorded as 5.03% and the Kel amounted to 0.13 h⁻¹.
With `COc1cc2c(cc1OC)[C@@H]1C[C@H](O)[C@@H](CC(C)C)CN1CC2` [(−)-α-DHTBZ, (2S,3S,11bS)-3-isobutyl-9,10-dimethoxy-1,3,4,6,7,11b-hexahydro-2H-pyrido[2,1,a]isoquinolin-2-ol], in series [2] (Study 1, 2.5 mg/kg, compared to vehicle-amphetamine group), the total stereotypic behaviour result was “did not lead to lower locomotor activity or reduced stereotypic behaviour”. In addition, in series [2] (Study 1, 2.5 mg/kg, compared to vehicle-amphetamine group, listed as (−)-α-isomer, 2.5 mg/kg), the “total distance travelled / locomotor activity” value is given as “very little, if any, reduction in induced locomotor activity”. Besides, the total distance travelled result in series [2] (Study 1, 2.5 mg/kg, compared to vehicle-vehicle group) is “significantly different”. The “observed behaviour of the rats” value in series [2] (rat, in vivo, 2.5 mg/kg) is “less focused on what was going on around them”. In addition, the “metabolite … (major/minor)” value in series [1] (listed as (−)-α-dihydrotetrabenazine) is given as “major metabolites; also recorded: main metabolites”. In series [1] (setting [10]), the Cmax worked out at 72.9 ng/mL and the AUC stood at 306 ng·h/mL. For the same compound, the Tmax in series [1] (setting [4]) came out at 0.938 h. Moreover, in series [1] (setting [5]), the AUC(0-t) is 474 ng·h/mL. Moreover, in series [1] (setting [6]), the AUC(0-t) was 306 ng·h/mL. In series [1] (setting [7]), the AUC(0-inf) came out at 352 ng·h/mL, the Cmax was determined as 72.9 ng/mL and the half-life was 473 min. Besides, in series [1] (setting [8]), the Cmaxss was 98.34 ng/mL, the Cminss came to 5.61 ng/mL, the Ctss is reported as 6.10 ng/mL and the “Tmaxss Mean” value is listed as 96.96 h. In addition, in series [1] (setting [9]), the “Extrapolated AUC” value is given as 10.59% and the Kel was determined as 0.1 h⁻¹.
On to `Cc1nc2n(c(=O)c1CCN1CCC(c3noc4cc(F)ccc34)CC1)CCCC2` [risperidone, reference compound], for which the total distance travelled result in series [2] (Study 1, 1 mg/kg, compared to vehicle-amphetamine group) is “significantly different”. Besides, in series [2] (setting [11]), the locomotor activity entry is “lower locomotor activity” and the stereotypic behaviour entry is reported as “reduced stereotypic behaviour”. In addition, in series [2] (setting [12]), the “total distance travelled / locomotor activity” value is reported as “lower locomotor activity” and the total stereotypic behaviour entry is “reduced stereotypic behaviour”.
Take α-dihydrotetrabenazine: the “affinity relative to the β-isomer” value in series [3] is given as 3- to 4 fold.
